Results from ChEMBL document CHEMBL1152845, “Synthesis, cytotoxicity and apoptosis of naphthalimide polyamine conjugates as antitumor agents” (Eur J Med Chem, 2009).
The source made the active and inactive calls. No cut-off for these calls is given here.

Legend:
[1] = tested on: B16; test: Cytotoxicity against mouse B16 cells after 48 hrs by MTT assay; format: functional, cell-based; settings: B16, 48 h
[2] = tested on: K562; test: Cytotoxicity against human K562 cells after 48 hrs by MTT assay; format: functional, cell-based; settings: K562, 48 h
[3] = tested on: CHO; test: Cytotoxicity against CHO cells after 48 hrs by MTT assay; format: cell-based; settings: Cricetulus griseus
[4] = tested on: B16; test: Induction of apoptosis in mouse B16 cells assessed as increase in mitochondrial cytochrome-C release after 48 hrs by Western blot relative to control; format: functional, cell-based
[5] = tested on: B16; test: Cell cycle arrest in mouse B16 cells by accumulation at G2/M phase at 1.0 uM after 48 hrs by flow cytometry; format: functional
[6] = tested on: B16; test: Induction of apoptosis in mouse B16 cells assessed as sub-G1 DNA content at 2.0 uM after 48 hrs by flow cytometry; format: functional
[7] = tested on: B16; test: Induction of apoptosis in mouse B16 cells assessed as increase in caspase-3 cleavage after 48 hrs by Western blot relative to control; format: functional, cell-based
[8] = tested on: B16; test: Induction of apoptosis in mouse B16 cells assessed as reduction in Bcl2 level after 48 hrs by Western blot relative to control; format: functional, cell-based
[9] = tested on: B16; test: Cell cycle arrest in mouse B16 cells by accumulation at S phase at 2.0 uM after 48 hrs by flow cytometry; format: functional
[10] = tested on: B16; test: Cell cycle arrest in mouse B16 cells by accumulation at G0/G1 phase at 0.5 uM after 48 hrs by flow cytometry; format: functional
[11] = tested on: Calf thymus DNA; test: Binding affinity to calf thymus DNA at 80 uM by spectrophotometry; format: nucleic-acid assay; settings: Bos taurus
[12] = tested on: B16; test: Cell cycle arrest in mouse B16 cells by accumulation at G2/M phase at 2.0 uM after 48 hrs by flow cytometry; format: functional
[13] = tested on: Bel-7402; test: Cytotoxicity against human Bel7402 cells after 48 hrs by MTT assay; format: functional, cell-based; settings: Bel-7402, 48 h
[14] = tested on: B16; test: Cell cycle arrest in mouse B16 cells by accumulation at S phase at 1.0 uM after 48 hrs by flow cytometry; format: functional
[15] = tested on: B16; test: Induction of apoptosis in mouse B16 cells assessed as increase in caspase-8 cleavage after 48 hrs by Western blot relative to control; format: functional, cell-based
[16] = tested on: B16; test: Induction of apoptosis in mouse B16 cells assessed as sub-G1 DNA content at 0.5 uM after 48 hrs by flow cytometry; format: functional
[17] = tested on: B16; test: Induction of apoptosis in mouse B16 cells assessed as increase in caspase-9 cleavage after 48 hrs by Western blot relative to control; format: functional, cell-based
[18] = tested on: B16; test: Induction of apoptosis in mouse B16 cells assessed as sub-G1 DNA content at 1.0 uM after 48 hrs by flow cytometry; format: functional
[19] = tested on: B16; test: Cell cycle arrest in mouse B16 cells by accumulation at G2/M phase at 0.5 uM after 48 hrs by flow cytometry; format: functional
[20] = tested on: B16; test: Cell cycle arrest in mouse B16 cells by accumulation at G0/G1 phase at 2.0 uM after 48 hrs by flow cytometry; format: functional
[21] = tested on: B16; test: Cell cycle arrest in mouse B16 cells by accumulation at G0/G1 phase at 1.0 uM after 48 hrs by flow cytometry; format: functional
[22] = Cytotoxicity against human QSG7701 cells after 48 hrs by MTT assay; format: cell-based; settings: QSG7701, 48 h
[23] = tested on: B16; test: Induction of apoptosis in mouse B16 cells assessed as increase in Bax level after 48 hrs by Western blot relative to control; format: functional, cell-based
[24] = tested on: B16; test: Cell cycle arrest in mouse B16 cells by accumulation at S phase at 0.5 uM after 48 hrs by flow cytometry; format: functional
[25] = Cytotoxicity against mouse Mel-A cells after 48 hrs by MTT assay; format: cell-based

## NCCCNCCCCNCCCCN1C(=O)c2cccc3cccc(c23)C1=O
[1]
  IC50: 2700 nM
[2]
  IC50: 3.84 µM
[3]
  IC50: 3.43 µM

## Cl.NCCCCNCCCCNCCCCN1C(=O)c2cccc3cccc(c23)C1=O
[1]
  IC50: 690 nM
[4]
  Activity: Active
[5]
  Activity: 24.91%
[6]
  Activity: 38.63%
[7]
  Activity: Dose-dependent effect
[8]
  Activity: Active
[9]
  Activity: 7.34%
[10]
  Activity: 69.78%
[11]
  Activity: Active
[12]
  Activity: 34.19%
[2]
  IC50: 1.16 µM
[13]
  IC50: 3560 nM
[14]
  Activity: 9.71%
[15]
  Activity: Dose-dependent effect
[16]
  Activity: 9.68%
[17]
  Activity: Dose-dependent effect
[18]
  Activity: 16.84%
[19]
  Activity: 18.52%
[20]
  Activity: 58.47%
[21]
  Activity: 65.38%
[22]
  IC50: > 50 µM
[3]
  IC50: 2.58 µM
[23]
  Activity: Active
[24]
  Activity: 11.7%

## O=C1NC(=O)c2cccc3cccc1c23
[1]
  IC50: > 50000 nM
[2]
  IC50: > 50 µM
[3]
  IC50: > 50 µM

## NCCCCNCCCCNCCCN1C(=O)c2cccc3cccc(c23)C1=O
[1]
  IC50: 5360 nM
[2]
  IC50: 9.08 µM
[3]
  IC50: 9.09 µM

## NCCCCNCCCCNCc1c2ccccc2cc2ccccc12
[1]
  IC50: 1400 nM
[25]
  IC50: 8.3 µM
[2]
  IC50: 0.95 µM
[3]
  IC50: 1.25 µM

## NCCCNCCCCN1C(=O)c2cccc3cccc(c23)C1=O
[1]
  IC50: 13900 nM
[2]
  IC50: 11.4 µM
[3]
  IC50: 20.7 µM

## NCCCNCCCCNCCCN1C(=O)c2cccc3cccc(c23)C1=O
[1]
  IC50: 620 nM
[2]
  IC50: 1.64 µM
[13]
  IC50: 1060 nM
[22]
  IC50: > 50 µM
[3]
  IC50: 1.21 µM
